Assays:
strain NRRL-B-18535 = experiment: Sensitivity of the producer strain to nisin; assay type: cell-based, Lactococcus lactis
Description: Inhibitory spectrum of LL-1. The plate assay system was used to evaluate the spectrum of bacteriocin activity. […] Strains of Streptococcus mutans, S. sanguis, S. faecalis and Listeria monocytogenes were not sensitive in this test. The strain NRRL-B-18535 was resistant to nisin.

Listeria monocytogenes = experiment: Spot assay of filter sterilized supernatant (LL-1 broth) on indicator lawn; assay type: cell-based; settings: as crude filter sterilized broth or dried powder from the broth, not purified
Protocol: To produce the bacteriocin, 500 ml of MRS broth (Difco) was inoculated at 1% with an 8 hour old culture of LLA 1.0 grown in MRS broth (Difco, Detroit, Mich.) and was incubated statically at 32° C. for 24 hours. After 24 hours the cells were removed by centrifugation at 16,000×g for 20 minutes at 4° C. The supernatant was filtered through a 0.22 micron (pore size) filter (Millipore Corp. Bedford, Mass.). The supernatant was assayed for bacteriocin activity by spotting 5 microliters of this supernatant material onto various media overlaid with soft agar seeded with different indicator cells. These assay plates were incubated at 35° C. or 32° C., respectively. After 24 hours the plates were examined, clear zones associated with the spot were recorded as positive (growth inhibition) and negative (no growth inhibition).

L. monocytogenes 69 = experiment: Inhibition of Listeria, LL-1 compared with nisin; assay type: cell-based, Listeria monocytogenes; parameters: key: + = Inhibition; - = No inhibition; settings: 370 IU/ml, nisin purified from the broth
Description: This is shown by the following data in Table 5.

## nisin
Strain NRRL-B-18535
  sensitivity of strain NRRL-B-18535 to nisin: resistant
Listeria monocytogenes
  activity against Listeria monocytogenes, in words: not effective
L. monocytogenes 69
  Inhibition of L. monocytogenes 69: -

— patent US5702923A, “Method of making a lactococcal bacteriocin” (Quest International Flavors & Food Ingredients Company, a …, priority 1992, dated 1997)
